Patent publication US20110124842A1 (priority 2003, published 2011)
Like-named read-outs stand apart in the source and are kept apart here.

Tests used:
[1] = tested on: Fab 4E10; assay: Surface plasmon resonance (Biacore 2000), Fab 4E10 on CM5 chip; type: binding, human
Method: The affinitiefs of the peptide analogs for 4E10 were also measured by surface plasmon resonance. Surface plasmon resonance experiments were performed using a Biacore 2000 instrument (Uppsala, Sweden). Around 2,200 response units (RU) of Fab 4E10 were coated on CM5 chips. The carboxyl groups on the chip were activated with 1-ethyl-3-(3-dimethylaminopropyl)carbodiimide hydrochloride (EDC) and N-hydroxysuccinimide (NHS). Fifty micrograms of Fab were diluted in 10 mM sodium acetate pH 4.5; a flow rate of 5 μl/min was used. Unreacted carboxyl groups were blocked with 1M ethanolamine at pH 8.5. The control was treated in the same fashion without any antibody present. Different amounts of free peptides were then passed over the surfaces at 30 or 50 μl/min for 2 min. Regeneration was done in HPS-EP buffer, 0.25 NaCl (Biacore) in 10 minutes. The amount of salt was increased compared to the commercial buffer to reduce the non-specific binding. For data evaluation, the BIAevaluation software was used. RI and Rmax were controlled, double referencing were done (0 concentration and start point). Analyses were performed to achieve the best curve fitting and small chi^2 (<1).
Surface plasmon resonance experiments were performed using a Biacore 2000 instrument (Uppsala, Sweden).
Chip preparation: around 2,200 response units (RU) of Fab 4E10 were coated on CM5 chips. The carboxyl groups on the chip were activated with 1-ethyl-3-(3-dimethylaminopropyl) carbodiimide hydrochloride (EDC) and N-hydroxysuccinimide (NHS). Fifty micrograms of Fab was diluted in 10 mM sodium acetate pH 4.5; a flow rate of 5 μl/min was used. Unreacted carboxyl groups were blocked with 1M ethanolamine at pH 8.5. The control was treated in the same fashion without any antibody present.
Experiment: different amounts of free peptides were then passed over the surfaces at 30 or 50 μl/min for 2 min. Regeneration was done in HPS-EP buffer, 0.25 NaCl (Biacore) in 10 min. The amount of salt was increased compared to the commercial buffer to reduce the non-specific binding.
Data evaluation: the BIAevaluation software was used. RI and Rmax were controlled, double referencing were done (0 concentration and start point). Analyses were performed to achieve the best curve fitting and small chi^2 (<1).

[2] = Circular dichroism spectroscopy of free peptides in solution (helicity); type: physicochemical; conditions: FIG. 48
Method: To determine whether the imposed constraints increased the helicity of the peptides, each one was analyzed in solution using circular dichroism (CD) spectroscopy (FIG. 48). An Aviv spectropolarimeter Model 203-02 was used, with cells of 0.1 cm in length, a wavelength step of 0.5 nm and a bandwidth of 1.0 nm. One to three scans were reported. The exact peptide concentrations were determined by UV measurements at 280 nm on a Gison UV detector, model 116.

## NWFDITNWLWYIKKKK [Peptide 94-1, NWFDITNWLWYIKKKK-NH2]
[1]; Table 7
  higher affinity of 4E10 than to peptide 33-1: about 17 fold
  koff: 0.0138 s⁻¹
  kon: 691000 M⁻¹ s⁻¹
[1]; Table 7, 4E10 peptide epitopes, read-out: Kd
  Kd: 20 nM
[1]; read-out: Kd (Biacore)
  Kd: 18 nM
[2]
  helicity in solution by CD: more helical than 84-1
